Experiments:
[1] = target: MAP kinase-activated protein kinase 2 (Homo sapiens) (UniProt P49137); conditions: Compound concentration 1000.0 nM
[2] = target: 5-hydroxytryptamine receptor 1B (Homo sapiens) (UniProt P28222); conditions: Compound concentration 10.0 uM
[3] = target: Tyrosine-protein kinase ITK/TSK (Homo sapiens) (UniProt Q08881); conditions: Compound concentration 1000.0 nM
[4] = system: Tyrosine-protein kinase ABL1 (Homo sapiens), P00519 [E255K]; conditions: Compound concentration 1000.0 nM
[5] = system: Tyrosine-protein kinase ABL1 (Homo sapiens), P00519 [Q252H]; conditions: Compound concentration 1000.0 nM
[6] = target: Sodium-dependent noradrenaline transporter (Homo sapiens) (UniProt P23975); conditions: Compound concentration 10.0 uM
[7] = system: Epidermal growth factor receptor (Homo sapiens), P00533 [UNDEFINED MUTATION]; conditions: Compound concentration 1000.0 nM
Sequence of Epidermal growth factor receptor (Homo sapiens), P00533 [UNDEFINED MUTATION] (P00533 whole entry, looked up, stated change not applied): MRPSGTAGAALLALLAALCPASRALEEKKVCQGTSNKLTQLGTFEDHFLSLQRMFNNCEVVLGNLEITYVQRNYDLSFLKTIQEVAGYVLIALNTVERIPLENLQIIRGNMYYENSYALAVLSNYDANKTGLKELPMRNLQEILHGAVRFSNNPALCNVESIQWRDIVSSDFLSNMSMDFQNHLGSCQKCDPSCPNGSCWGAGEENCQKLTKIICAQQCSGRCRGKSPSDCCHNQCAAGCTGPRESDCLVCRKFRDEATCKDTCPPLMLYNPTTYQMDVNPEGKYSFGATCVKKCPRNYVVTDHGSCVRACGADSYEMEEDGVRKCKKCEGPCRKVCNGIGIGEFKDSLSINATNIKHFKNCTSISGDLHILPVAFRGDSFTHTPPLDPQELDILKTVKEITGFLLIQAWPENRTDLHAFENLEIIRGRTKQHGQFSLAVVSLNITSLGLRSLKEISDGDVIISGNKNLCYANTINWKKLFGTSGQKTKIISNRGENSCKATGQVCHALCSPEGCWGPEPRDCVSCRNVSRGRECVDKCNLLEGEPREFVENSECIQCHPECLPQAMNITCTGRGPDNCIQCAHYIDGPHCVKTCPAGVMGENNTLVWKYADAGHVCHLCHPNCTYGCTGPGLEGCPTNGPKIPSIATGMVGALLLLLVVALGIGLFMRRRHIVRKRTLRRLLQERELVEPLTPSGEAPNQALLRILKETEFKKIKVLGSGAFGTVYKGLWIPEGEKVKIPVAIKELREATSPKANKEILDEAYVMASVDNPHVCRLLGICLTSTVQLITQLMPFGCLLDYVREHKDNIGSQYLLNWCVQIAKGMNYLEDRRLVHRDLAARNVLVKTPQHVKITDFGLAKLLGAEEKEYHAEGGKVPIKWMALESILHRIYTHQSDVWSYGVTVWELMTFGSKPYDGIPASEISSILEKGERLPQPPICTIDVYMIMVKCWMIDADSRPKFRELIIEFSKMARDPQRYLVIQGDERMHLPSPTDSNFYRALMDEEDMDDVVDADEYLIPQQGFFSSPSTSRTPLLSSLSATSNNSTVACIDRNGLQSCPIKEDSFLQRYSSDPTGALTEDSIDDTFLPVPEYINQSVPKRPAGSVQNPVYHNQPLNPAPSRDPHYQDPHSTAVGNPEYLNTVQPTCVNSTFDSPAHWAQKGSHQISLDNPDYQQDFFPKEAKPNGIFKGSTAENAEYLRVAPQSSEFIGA

[8] = target: Dual specificity mitogen-activated protein kinase kinase 6 (Homo sapiens) (UniProt P52564); conditions: Compound concentration 1000.0 nM
Sequence of Dual specificity mitogen-activated protein kinase kinase 6 (Homo sapiens) (P52564 whole entry): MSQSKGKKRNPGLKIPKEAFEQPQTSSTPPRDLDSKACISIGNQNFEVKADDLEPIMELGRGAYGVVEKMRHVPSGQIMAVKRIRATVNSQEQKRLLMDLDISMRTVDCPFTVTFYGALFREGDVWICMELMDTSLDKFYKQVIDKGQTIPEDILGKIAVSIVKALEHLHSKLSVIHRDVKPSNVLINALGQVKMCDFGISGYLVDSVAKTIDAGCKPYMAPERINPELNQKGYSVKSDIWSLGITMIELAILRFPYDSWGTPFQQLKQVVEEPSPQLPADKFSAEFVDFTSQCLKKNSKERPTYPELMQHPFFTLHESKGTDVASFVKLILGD

[9] = target: Serine/threonine-protein kinase MARK1 (Homo sapiens) (UniProt Q9P0L2); conditions: Compound concentration 1000.0 nM
[10] = target: Mitogen-activated protein kinase 13 (Homo sapiens) (UniProt O15264); conditions: Compound concentration 1000.0 nM
Sequence of Mitogen-activated protein kinase 13 (Homo sapiens) (O15264 whole entry): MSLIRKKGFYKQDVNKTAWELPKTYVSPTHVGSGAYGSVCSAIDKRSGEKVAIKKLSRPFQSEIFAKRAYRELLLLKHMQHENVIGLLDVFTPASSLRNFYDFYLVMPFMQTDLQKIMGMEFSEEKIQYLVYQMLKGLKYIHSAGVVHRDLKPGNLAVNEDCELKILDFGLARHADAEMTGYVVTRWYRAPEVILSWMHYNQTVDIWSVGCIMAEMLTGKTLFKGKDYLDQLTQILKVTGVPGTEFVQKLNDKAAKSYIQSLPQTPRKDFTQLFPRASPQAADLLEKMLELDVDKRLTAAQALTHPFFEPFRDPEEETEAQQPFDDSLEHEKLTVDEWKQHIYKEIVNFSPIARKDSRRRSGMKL

[11] = target: Serine/threonine-protein kinase D3 (Homo sapiens) (UniProt O94806); conditions: Compound concentration 1000.0 nM
[12] = target: Ephrin type-B receptor 6 (Homo sapiens) (UniProt O15197); conditions: Compound concentration 1000.0 nM
[13] = target: Insulin receptor-related protein (Homo sapiens) (UniProt P14616); conditions: Compound concentration 1000.0 nM
[14] = target: Serine/threonine-protein kinase 36 (Homo sapiens) (UniProt Q9NRP7); conditions: Compound concentration 1000.0 nM
[15] = system: Phosphatidylinositol 4,5-bisphosphate 3-kinase catalytic subunit alpha isoform (Homo sapiens), P42336 [E542K]; conditions: Compound concentration 1000.0 nM
[16] = system: Epidermal growth factor receptor (Homo sapiens), P00533 [UNDEFINED MUTATION]; conditions: Compound concentration 1000.0 nM; remark: listed apart in the source
[17] = system: Receptor-type tyrosine-protein kinase FLT3 (Homo sapiens), P36888 [K663Q]; conditions: Compound concentration 1000.0 nM
[18] = system: Receptor-type tyrosine-protein kinase FLT3 (Homo sapiens), P36888 [N841I]; conditions: Compound concentration 1000.0 nM
[19] = target: Ribosomal protein S6 kinase alpha-3 (Homo sapiens) (UniProt P51812); conditions: Compound concentration 1000.0 nM
[20] = target: Serine/threonine-protein kinase 16 (Homo sapiens) (UniProt O75716); conditions: Compound concentration 1000.0 nM
[21] = target: Serine/threonine-protein kinase PAK 6 (Homo sapiens) (UniProt Q9NQU5); conditions: Compound concentration 1000.0 nM
[22] = target: Activin receptor type-1 (Homo sapiens) (UniProt Q04771); conditions: Compound concentration 1000.0 nM
[23] = target: Fibroblast growth factor receptor 4 (Homo sapiens) (UniProt P22455); conditions: Compound concentration 1000.0 nM
[24] = target: Homeodomain-interacting protein kinase 1 (Homo sapiens) (UniProt Q86Z02); conditions: Compound concentration 1000.0 nM
[25] = target: NUAK family SNF1-like kinase 1 (Homo sapiens) (UniProt O60285); conditions: Compound concentration 1000.0 nM
[26] = system: Hepatocyte growth factor receptor (Homo sapiens), P08581 [Y1235D]; conditions: Compound concentration 1000.0 nM
[27] = target: Serine/threonine-protein kinase RIO1 (Homo sapiens) (UniProt Q9BRS2); conditions: Compound concentration 1000.0 nM
[28] = target: Macrophage colony-stimulating factor 1 receptor (Homo sapiens) (UniProt P07333); conditions: Compound concentration 1000.0 nM
[29] = target: Calcium-dependent protein kinase 1 (Plasmodium falciparum) (UniProt P62344); conditions: Compound concentration 1000.0 nM
[30] = target: Serine/threonine-protein kinase WNK4 (Homo sapiens) (UniProt Q96J92); conditions: Compound concentration 1000.0 nM
Sequence of Serine/threonine-protein kinase WNK4 (Homo sapiens) (Q96J92 whole entry): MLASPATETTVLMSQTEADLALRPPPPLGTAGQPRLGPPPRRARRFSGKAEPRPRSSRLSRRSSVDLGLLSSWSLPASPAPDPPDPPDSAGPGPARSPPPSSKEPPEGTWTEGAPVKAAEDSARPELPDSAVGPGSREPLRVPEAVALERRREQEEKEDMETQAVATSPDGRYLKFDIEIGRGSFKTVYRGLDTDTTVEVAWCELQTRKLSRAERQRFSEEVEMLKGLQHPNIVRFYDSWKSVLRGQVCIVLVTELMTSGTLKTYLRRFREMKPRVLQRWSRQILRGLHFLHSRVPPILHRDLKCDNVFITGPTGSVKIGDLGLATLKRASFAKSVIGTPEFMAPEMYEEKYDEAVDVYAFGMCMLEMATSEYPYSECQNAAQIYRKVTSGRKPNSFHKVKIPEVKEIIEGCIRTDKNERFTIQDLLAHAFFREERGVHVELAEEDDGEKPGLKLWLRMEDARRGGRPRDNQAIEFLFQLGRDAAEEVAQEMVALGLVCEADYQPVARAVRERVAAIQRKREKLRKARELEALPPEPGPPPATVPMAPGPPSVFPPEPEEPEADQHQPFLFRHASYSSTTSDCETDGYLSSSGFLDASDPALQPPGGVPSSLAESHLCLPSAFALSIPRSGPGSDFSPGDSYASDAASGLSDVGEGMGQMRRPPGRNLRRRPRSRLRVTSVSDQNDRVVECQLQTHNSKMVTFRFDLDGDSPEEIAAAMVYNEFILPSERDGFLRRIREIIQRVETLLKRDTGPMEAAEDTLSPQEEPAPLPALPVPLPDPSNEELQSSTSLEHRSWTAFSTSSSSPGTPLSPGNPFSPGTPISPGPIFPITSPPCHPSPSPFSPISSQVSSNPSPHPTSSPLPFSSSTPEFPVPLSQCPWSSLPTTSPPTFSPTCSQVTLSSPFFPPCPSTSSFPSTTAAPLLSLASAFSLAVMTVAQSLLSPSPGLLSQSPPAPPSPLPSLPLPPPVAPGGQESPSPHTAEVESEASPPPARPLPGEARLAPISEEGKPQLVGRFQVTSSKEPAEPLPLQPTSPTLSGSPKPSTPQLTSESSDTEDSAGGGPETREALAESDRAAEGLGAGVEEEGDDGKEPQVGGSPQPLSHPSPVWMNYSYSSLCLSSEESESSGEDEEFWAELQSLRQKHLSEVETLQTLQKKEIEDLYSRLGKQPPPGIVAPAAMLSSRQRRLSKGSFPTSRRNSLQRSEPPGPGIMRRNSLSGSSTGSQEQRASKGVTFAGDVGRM

[31] = target: Serine/threonine-protein kinase D1 (Homo sapiens) (UniProt Q15139); conditions: Compound concentration 1000.0 nM
[32] = target: Serine/threonine-protein kinase pim-3 (Homo sapiens) (UniProt Q86V86); conditions: Compound concentration 1000.0 nM
[33] = target: STE20-like serine/threonine-protein kinase (Homo sapiens) (UniProt Q9H2G2); conditions: Compound concentration 1000.0 nM
Sequence of STE20-like serine/threonine-protein kinase (Homo sapiens) (Q9H2G2 whole entry, looked up): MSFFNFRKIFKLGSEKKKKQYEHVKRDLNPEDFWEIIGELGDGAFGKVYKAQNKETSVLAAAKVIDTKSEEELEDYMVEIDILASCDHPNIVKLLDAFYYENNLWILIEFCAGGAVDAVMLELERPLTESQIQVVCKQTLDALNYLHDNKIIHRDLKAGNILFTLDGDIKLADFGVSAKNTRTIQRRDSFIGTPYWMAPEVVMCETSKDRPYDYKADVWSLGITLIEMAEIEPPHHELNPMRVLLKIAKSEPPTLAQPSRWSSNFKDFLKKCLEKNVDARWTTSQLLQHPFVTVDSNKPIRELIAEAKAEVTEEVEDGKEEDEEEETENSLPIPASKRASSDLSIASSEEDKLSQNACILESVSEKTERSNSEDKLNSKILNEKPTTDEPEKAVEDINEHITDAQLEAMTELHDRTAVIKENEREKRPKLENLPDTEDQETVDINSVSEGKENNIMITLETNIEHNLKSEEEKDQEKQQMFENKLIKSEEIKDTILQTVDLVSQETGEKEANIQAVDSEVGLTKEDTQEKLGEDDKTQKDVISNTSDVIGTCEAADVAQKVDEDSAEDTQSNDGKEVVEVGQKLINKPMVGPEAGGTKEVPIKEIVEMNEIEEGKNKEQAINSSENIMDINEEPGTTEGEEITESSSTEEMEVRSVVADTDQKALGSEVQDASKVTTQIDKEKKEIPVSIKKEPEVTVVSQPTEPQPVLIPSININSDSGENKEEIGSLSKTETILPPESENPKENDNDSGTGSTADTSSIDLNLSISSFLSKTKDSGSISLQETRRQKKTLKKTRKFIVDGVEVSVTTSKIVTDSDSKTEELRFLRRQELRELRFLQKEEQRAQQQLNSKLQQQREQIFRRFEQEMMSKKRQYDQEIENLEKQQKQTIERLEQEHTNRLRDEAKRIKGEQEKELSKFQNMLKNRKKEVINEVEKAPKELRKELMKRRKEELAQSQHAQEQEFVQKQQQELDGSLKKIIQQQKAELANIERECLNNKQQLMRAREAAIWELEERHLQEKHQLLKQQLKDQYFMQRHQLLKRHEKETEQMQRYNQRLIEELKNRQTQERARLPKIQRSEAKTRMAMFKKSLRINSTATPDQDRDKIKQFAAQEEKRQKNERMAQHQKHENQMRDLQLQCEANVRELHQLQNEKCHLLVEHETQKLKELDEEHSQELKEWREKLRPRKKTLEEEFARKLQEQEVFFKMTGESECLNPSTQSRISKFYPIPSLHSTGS

[34] = target: Tyrosine-protein kinase Mer (Homo sapiens) (UniProt Q12866); conditions: Compound concentration 1000.0 nM
[35] = target: Cyclin-dependent kinase-like 3 (Homo sapiens) (UniProt Q8IVW4); conditions: Compound concentration 1000.0 nM
[36] = target: Glycogen synthase kinase-3 beta (Homo sapiens) (UniProt P49841); conditions: Compound concentration 1000.0 nM
[37] = target: Serine/threonine-protein kinase TAO2 (Homo sapiens) (UniProt Q9UL54); conditions: Compound concentration 1000.0 nM
[38] = target: Non-receptor tyrosine-protein kinase TYK2 (Homo sapiens) (UniProt P29597); conditions: Compound concentration 1000.0 nM
[39] = target: Mitogen-activated protein kinase kinase kinase kinase 4 (Homo sapiens) (UniProt O95819); conditions: Compound concentration 1000.0 nM
[40] = target: Serine/threonine-protein kinase 38 (Homo sapiens) (UniProt Q15208); conditions: Compound concentration 1000.0 nM
[41] = target: Ribosomal protein S6 kinase alpha-1 (Homo sapiens) (UniProt Q15418); conditions: Compound concentration 1000.0 nM
[42] = target: Tyrosine-protein kinase SYK (Homo sapiens) (UniProt P43405); conditions: Compound concentration 1000.0 nM
[43] = target: Dual specificity mitogen-activated protein kinase kinase 3 (Homo sapiens) (UniProt P46734); conditions: Compound concentration 1000.0 nM
[44] = system: Receptor-type tyrosine-protein kinase FLT3 (Homo sapiens), P36888 [UNDEFINED MUTATION]; conditions: Compound concentration 1000.0 nM
[45] = target: Myosin-IIIa (Homo sapiens) (UniProt Q8NEV4); conditions: Compound concentration 1000.0 nM

Sequence of Tyrosine-protein kinase ITK/TSK (Homo sapiens) (Q08881 whole entry): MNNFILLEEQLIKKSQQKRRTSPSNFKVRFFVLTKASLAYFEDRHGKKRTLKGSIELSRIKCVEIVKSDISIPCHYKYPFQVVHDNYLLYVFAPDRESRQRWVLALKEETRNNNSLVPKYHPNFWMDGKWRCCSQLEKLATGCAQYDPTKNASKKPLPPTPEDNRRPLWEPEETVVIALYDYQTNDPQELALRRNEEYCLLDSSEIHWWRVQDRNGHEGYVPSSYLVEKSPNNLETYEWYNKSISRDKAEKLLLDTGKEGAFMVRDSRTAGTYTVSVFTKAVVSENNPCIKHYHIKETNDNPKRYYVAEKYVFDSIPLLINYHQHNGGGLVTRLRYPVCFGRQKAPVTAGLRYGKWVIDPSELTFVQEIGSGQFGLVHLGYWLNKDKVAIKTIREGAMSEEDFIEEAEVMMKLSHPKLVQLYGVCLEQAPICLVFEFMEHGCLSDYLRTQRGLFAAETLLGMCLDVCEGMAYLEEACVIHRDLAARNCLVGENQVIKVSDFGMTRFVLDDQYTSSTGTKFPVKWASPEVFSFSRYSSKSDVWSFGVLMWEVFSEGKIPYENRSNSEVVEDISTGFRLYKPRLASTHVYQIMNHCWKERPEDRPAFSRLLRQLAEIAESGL

COc1ccc2c(O[C@@H]3C[C@H]4C(=O)N[C@]5(C(=O)O)CC5/C=C\CCCCC[C@H](NC(=O)OC5CCCC5)C(=O)N4C3)cc(-c3csc(NC(=O)C(C)C)n3)nc2c1C (stereo not given in full) [BI 1230]
residual activity [1]: 60%
inhibition [2]: 7.71%
residual activity [3]: 95%
residual activity [4]: 80%
residual activity [5]: 70%
inhibition [6]: -4.46%
residual activity [7]: 75%
residual activity [8]: 100%
residual activity [9]: 100%
residual activity [10]: 100%
residual activity [11]: 100%
residual activity [12]: 89%
residual activity [13]: 95%
residual activity [14]: 93%
residual activity [15]: 71%
residual activity [16]: 98%
residual activity [17]: 81%
residual activity [18]: 89%
residual activity [19]: 82%
residual activity [20]: 100%
residual activity [21]: 100%
residual activity [22]: 100%
residual activity [23]: 100%
residual activity [24]: 77%
residual activity [25]: 92%
residual activity [26]: 100%
residual activity [27]: 93%
residual activity [28]: 71%
residual activity [29]: 100%
residual activity [30]: 91%
residual activity [31]: 89%
residual activity [32]: 94%
residual activity [33]: 100%
residual activity [34]: 70%
residual activity [35]: 92%
residual activity [36]: 100%
residual activity [37]: 98%
residual activity [38]: 100%
residual activity [39]: 100%
residual activity [40]: 50%
residual activity [41]: 74%
residual activity [42]: 100%
residual activity [43]: 82%
residual activity [44]: 97%
residual activity [45]: 100%

O=C(N[C@H]1CCCCC/C=C\C2C[C@@]2(C(=O)O)NC(=O)[C@@H]2C[C@@H](Oc3ccncc3)CN2C1=O)OC1CCCC1 (stereo not given in full) [BI 1675]
residual activity [1]: 89%
inhibition [2]: -3.04%
residual activity [3]: 100%
residual activity [4]: 80%
residual activity [5]: 65%
inhibition [6]: -6.94%
residual activity [7]: 49%
residual activity [8]: 94%
residual activity [9]: 100%
residual activity [10]: 96%
residual activity [11]: 82%
residual activity [12]: 89%
residual activity [13]: 100%
residual activity [14]: 85%
residual activity [15]: 96%
residual activity [16]: 78%
residual activity [17]: 85%
residual activity [18]: 100%
residual activity [19]: 89%
residual activity [20]: 79%
residual activity [21]: 100%
residual activity [22]: 100%
residual activity [23]: 100%
residual activity [24]: 86%
residual activity [25]: 99%
residual activity [26]: 81%
residual activity [27]: 63%
residual activity [28]: 95%
residual activity [29]: 73%
residual activity [30]: 100%
residual activity [31]: 96%
residual activity [32]: 100%
residual activity [33]: 100%
residual activity [34]: 64%
residual activity [35]: 99%
residual activity [36]: 89%
residual activity [37]: 100%
residual activity [38]: 98%
residual activity [39]: 100%
residual activity [40]: 97%
residual activity [41]: 100%
residual activity [42]: 100%
residual activity [43]: 80%
residual activity [44]: 100%
residual activity [45]: 94%

From ChEMBL document CHEMBL4507284, “Data for DCP probe BI-1230” (2021)
